From the supplement of paper PMC10883282

How the values were obtained:
Assay in all cases: relative viability vs DMSO control (72 h) (fraction); higher = more viable cells
[1] = system: HS729
Procedure, shortened: (§1)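 Densities for seeding sarcoma cell lines into 384-well plates were set to give 80–90% confluence. After 24 h, 2.5 µl of serially diluted compound from source plates of 10 mM to 0.0002 mM went in, and plates stayed 72 h at 37 °C in 5% CO2 with 0.1% DMSO vehicle and a 5 µM positive control. Percent growth from ATPLite readings, averaged over up to triplicate wells, served as relative viability, rescaled so 1 means full and 0 means none.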

[2] = system: KHOS-240S
Procedure, shortened: as §1

[3] = system: A204
Procedure, shortened: as §1

[4] = system: SYO-1
Procedure, shortened: as §1

[5] = system: SW982
Procedure, shortened: as §1

C[C@H]1Oc2cc(cnc2N)-c2c(nn(C)c2C#N)CN(C)C(=O)c2ccc(F)cc21 [Lorlatinib]
relative viability
Conditions | [1] | [2] | [3] | [4] | [5]
0.00017 µM | 1.06 | 1.06 | 1.08 | 0.99 | 1.012
0.00051 µM | 0.956 | 1.08 | 1.11 | 0.982 | 1.04
0.00152 µM | 0.897 | 1.07 | 1.1 | 0.985 | 1.02
0.00457 µM | 0.958 | 1.07 | 1.13 | 0.966 | 1.04
0.01372 µM | 0.878 | 1.06 | 1.1 | 0.966 | 1.03
0.04115 µM | 0.886 | 1.01 | 1.07 | 0.921 | 1.03
0.1235 µM | 0.829 | 1.01 | 1.05 | 0.873 | 0.895
0.3704 µM | 0.899 | 1.01 | 1.05 | 0.844 | 0.826
1.111 µM | 0.803 | 0.969 | 1.01 | 0.768 | 0.762
3.333 µM | 0.781 | 0.915 | 0.981 | 0.737 | 0.768
10 µM | 0.662 | 0.865 | 0.988 | 0.66 | 0.64

Cc1c(F)cc(C(=O)NC2CC2)cc1-c1ccc(C(=O)NCC(C)(C)C)cn1 [Losmapimod]
relative viability
Conditions | [1] | [2] | [3] | [4] | [5]
0.00017 µM | 1.09 | 1.07 | 1.06 | 0.993 | 1.059
0.00051 µM | 1.04 | 1.1 | 1.07 | 0.992 | 1.07
0.00152 µM | 1.06 | 1.07 | 1.07 | 0.975 | 1.09
0.00457 µM | 1.02 | 1.09 | 1.06 | 0.975 | 1.07
0.01372 µM | 0.972 | 1.04 | 1.1 | 0.954 | 1.07
0.04115 µM | 0.954 | 1.06 | 1.07 | 0.957 | 1.07
0.1235 µM | 0.903 | 1.02 | 1.07 | 0.915 | 1.06
0.3704 µM | 0.848 | 1 | 1.03 | 0.865 | 1.07
1.111 µM | 0.818 | 0.951 | 1.03 | 0.852 | 1.06
3.333 µM | 0.805 | 0.97 | 0.992 | 0.813 | 1.02
10 µM | 0.809 | 0.893 | 0.901 | 0.812 | 1

CO[C@@H]1[C@H](N(C)C(=O)c2ccccc2)C[C@H]2O[C@]1(C)n1c3ccccc3c3c4c(c5c6ccccc6n2c5c31)C(=O)NC4 [Midostaurin]
relative viability
Conditions | [1] | [2] | [3] | [4] | [5]
0.00017 µM | 0.927 | 1.04 | 1.04 | 0.955 | 1
0.00051 µM | 0.913 | 1.04 | 1.03 | 0.946 | 0.978
0.00152 µM | 0.914 | 1.03 | 1.02 | 0.941 | 0.979
0.00457 µM | 0.921 | 1.04 | 0.997 | 0.92 | 0.931
0.01372 µM | 0.874 | 1.02 | 1.01 | 0.833 | 0.93
0.04115 µM | 0.828 | 0.937 | 0.961 | 0.755 | 0.939
0.1235 µM | 0.791 | 0.797 | 0.792 | 0.676 | 0.821
0.3704 µM | 0.684 | 0.536 | 0.485 | 0.294 | 0.375
1.111 µM | 0.368 | 0.256 | 0.263 | 0.0535 | 0.19
3.333 µM | 0.269 | 0.143 | 0.192 | 0.0115 | 0.124
10 µM | 0.273 | 0.09613 | 0.157 | 0.00107 | 0.122

Cc1ccc(C(=O)OCc2ccc([C@@H](CN)C(=O)Nc3ccc4cnccc4c3)cc2)c(C)c1 [Netarsudil]
relative viability
Conditions | [1] | [2] | [3] | [4] | [5]
0.00017 µM | 0.874 | 1.06 | 1.03 | 0.953 | 1.06
0.00051 µM | 0.85 | 1.07 | 1.05 | 0.962 | 1.03
0.00152 µM | 0.899 | 1.05 | 1.04 | 0.952 | 1.03
0.00457 µM | 0.852 | 1.05 | 1.03 | 0.953 | 1.04
0.01372 µM | 0.87 | 1.01 | 1.01 | 0.923 | 1.05
0.04115 µM | 0.896 | 1.03 | 0.963 | 0.874 | 1.032
0.1235 µM | 0.876 | 0.903 | 0.841 | 0.828 | 0.98
0.3704 µM | 0.844 | 0.768 | 0.82 | 0.756 | 0.897
1.111 µM | 0.812 | 0.686 | 0.703 | 0.691 | 0.841
3.333 µM | 0.8113 | 0.541 | 0.609 | 0.636 | 0.749
10 µM | 0.224 | 0.0141 | 0.00737 | -0.0088 | 0.0152

Cc1cn(-c2cc(NC(=O)c3ccc(C)c(Nc4nccc(-c5cccnc5)n4)c3)cc(C(F)(F)F)c2)cn1 [Nilotinib]
relative viability
Conditions | [1] | [2] | [3] | [4] | [5]
0.00017 µM | 0.914 | 1.04 | 1 | 0.904 | 0.977
0.00051 µM | 0.914 | 1.02 | 0.979 | 0.868 | 0.983
0.00152 µM | 0.92 | 1.03 | 1.03 | 0.899 | 0.957
0.00457 µM | 0.915 | 1.02 | 1.04 | 0.865 | 0.974
0.01372 µM | 0.922 | 1.03 | 1.05 | 0.818 | 0.988
0.04115 µM | 0.907 | 1.01 | 1.074 | 0.84 | 0.994
0.1235 µM | 0.848 | 0.999 | 1.01 | 0.802 | 0.987
0.3704 µM | 0.792 | 0.998 | 0.662 | 0.6513 | 0.998
1.111 µM | 0.766 | 0.907 | 0.421 | 0.598 | 0.973
3.333 µM | 0.656 | 0.847 | 0.34 | 0.522 | 0.902
10 µM | 0.737 | 0.658 | 0.345 | 0.446 | 0.727
